We go through 89 compounds from a melting point compilation (Tetko et al.; mined from patent text by program, amines drawn as free bases though some values may be those of a salt).

As a reminder, the melting point is the temperature, or range, at which the solid turns liquid.

With `C[C@H]1CN(c2c(F)cc3c(=O)c(C(=O)O)cn(CCF)c3c2F)C[C@H]1NC(=O)OC(C)(C)C` (relative stereo), the melting point was 217 to 219 °C.
As for `NC(=O)Nc1ccc(O)cc1`, the figure is 96.3 to 98.3 °C.
As for `O=C(O)c1ccc2c(=O)c3ccccc3ccc2c1`, the figure is 261 to 262 °C; as for `COc1cccc(-c2nc(-c3ccccc3C)n(C(=O)Nc3ccccc3)n2)c1`, 123 to 125 °C; as for `CCc1ccc2ncc([N+](=O)[O-])c(Nc3ccccc3Cl)c2c1`, 134 to 136 °C.
Consider `Cn1ccnc1COc1cccc(Nc2cc(-c3c[nH]nc3-c3ccccn3)ccn2)c1`, for which the melting point was found to be 120 °C.
The result for `CC(C)n1c(C=O)c(-c2ccc(F)cc2)c(-c2ccc(F)cc2)c1C(=O)Nc1ccc(S(N)(=O)=O)cc1` reads 194 to 195 °C; that for `CN1CCN(c2cccc3ccc(OC(=O)c4ccccc4)cc23)CC1`, 82 to 82.5 °C.
As for `COc1cc2c(cc1OC)C(C)=[N+]([O-])C(c1ccccc1)N2` (centres undefined), the figure is 178 to 182 °C; as for `CCOC(=O)c1c(Cl)nc(-c2cccc([N+](=O)[O-])c2)c([N+](=O)[O-])c1C(=O)OCC`, 90 to 91 °C.
As for `ClCc1c(-c2ccccc2)c(-c2ccccc2)nn1Cc1ccccc1`, the figure is 99 °C; as for `COc1cccc(Cc2ccc3[nH]c4cnn(C)c4c(=O)c3c2)c1`, 246 to 250 °C.
For `S=c1[nH]c2cccnc2n1-c1ccc2c(c1)OCO2`, the melting point came to 278 °C.
Compound `ClCCCOc1cccc(OCCCCl)c1` registered a melting point of 135 to 136 °C.
The result for `Cc1c(C(O)C(C)(C)C)cc(I)[nH]c1=O` (centres undefined) reads 186 to 187 °C; that for `CC(C)(C)OC(=O)CN1C(=O)[C@@H](NC(=O)OC(C)(C)C)CC(=O)c2ccccc21`, 75 to 77 °C; that for `O=C1CCCC(=O)N1c1ccncc1`, 153 to 155 °C.
For `C=CCOc1ccc(C(=O)CC(C#N)(CCC)c2ccc(OC)cc2OC)cc1` (centres undefined), the melting point fell in the range of 86.1 to 87.1 °C.
In turn, `COC(=O)c1cc(C)c(C)cc1C(=O)OC` came in with a melting point of 54 to 55 °C.
The result for `CC(C)(C)c1cc(SC(Sc2cc(C(C)(C)C)c(O)c(C(C)(C)C)c2)Sc2cc(C(C)(C)C)c(O)c(C(C)(C)C)c2)cc(C(C)(C)C)c1O` reads 217 to 220 °C; that for `CCCCc1ncc(/C=C(/C(=O)O)C(CCCC)c2cccs2)n1Cc1ccccc1Cl` (centres undefined), 161 to 163 °C.
The result for `COC(=O)NC1CCc2sc(C3=NNC(=O)CC3)cc2C1` (centres undefined) reads 205 to 206 °C; that for `OCc1c2c(nn1-c1ccc(F)cc1)CCCCC2`, 177 to 178 °C.
The result for `COCOc1cc(F)ccc1-c1cc(-c2cccc(Br)c2)c(C#N)c(N)n1` reads 165 to 166 °C; that for `CCCCN(CCCC)C(=S)C(=S)N(CCCC)CCCC`, 35 to 38 °C.
In the case of `Cc1nc2ccccc2c2ccc(F)cc12`, the melting point is 92 to 93 °C.
As for `CCCCn1c(=O)c2[nH]cnc2n(CCCC)c1=O`, the figure is 166 to 169 °C.
As for `CC(=CC=Cc1ccccc1)C(=O)C1OCC(C)(C)CO1`, the figure is 122 to 125 °C.
The result for `c1cc2c3c(c[nH]c3c1)CC1NCCOC21` (centres undefined) reads 175 to 177 °C.
In turn, `CON=C(C1=Nc2ccc(Cl)cc2C(c2ccccc2F)=[N+]([O-])C1)[N+](=O)[O-]` had a melting point of 207 to 209 °C.
The result for `CC(=O)Oc1ccc(C=CC(=O)N(c2ccccc2)c2ccccc2)cc1[N+](=O)[O-]` reads 170 to 172 °C; that for `O=C1CC2CCCCC2=NN1c1ccc(Cl)cc1F` (centres undefined), 110 to 112 °C.
The result for `CCO[C@@H]1c2ccn3c(C)c(C)nc3c2N[C@H](c2ccccc2)[C@H]1O` reads 143 to 144 °C; that for `CCNc1nc(NC2CC2)cc(SC)n1`, 75 to 76 °C; that for `O=C(O)CC1c2ccccc2C=Cc2ccccc21`, 167 to 168 °C.
The result for `C#CC1(OC(C)=O)CCC2C3CCc4cc(OC)ccc4C3CCC21CC` (centres undefined) reads 178 to 182 °C; that for `CCc1cc2cc(OC)ccc2[nH]1`, 49 to 50 °C.
In turn, `CCCCCCCCCCCCCC(O)CNCCCCCCNCC(O)CCCCCCCCCCCCC` (centres undefined) returned a melting point of 117 to 124 °C.
Regarding `FC(F)c1cc(Cl)nc2c1c(I)nn2C1CCCCO1` (centres undefined), the melting point came to 157 °C.
As for `O=S(=O)(NCCSC1c2ccccc2COc2ccc(/C=C/c3ccc4cc(F)c(F)cc4n3)cc21)C(F)(F)F` (centres undefined), the figure is 84 to 87 °C; as for `CCCCCC(=O)c1cc2c(cc1/C=C/c1ccc(C(=O)O)cc1)C(C)(C)CCC2(C)C`, 118 to 119 °C.
As for `OCc1cn(-c2ccc(-c3ccccc3)cc2)cn1`, the figure is 173 to 177 °C; as for `O=Cc1ccc(-c2ccccc2)c(F)c1`, 82 to 83 °C; as for `Cc1nc(-n2ccc(OCc3ccccc3)cc2=O)n(C)c1C(=O)NCc1ccccc1`, 232 to 233 °C.
Turning to `COC(=O)CCCCNC(=O)C(CO)NS(=O)(=O)c1ccc(Cl)cc1` (racemic), the melting point lay within 92 to 94 °C.
As for `CCOC(=O)C1=C(C)NC(C(Nc2ccccc2C(=O)O)SCc2ccccc2)=C(C(=O)OCC)C1c1cccc([N+](=O)[O-])c1` (centres undefined), the figure is 105 to 107 °C; as for `CCc1nn(C2CCCC2)c(NC(=O)c2ccnc3ccccc23)c1C#N`, 156 to 161 °C; as for `CCOC(=O)c1ccc2cncc(I)c2n1`, 135 to 137 °C.
The result for `Cc1cc(C)c2nc(Nc3ccc(CN)cc3)n(Cc3nc(C)ccc3O)c2c1` reads 255 °C; that for `CC(=O)NC[C@H]1CN(c2cc(F)c(N3CCN(CCO)CC3)c(F)c2)C(=O)O1`, 172 to 174 °C.
The result for `NC(=O)C=Cc1ccc(N)cc1` reads 200 °C; that for `COc1cc2ccc(C(=O)c3ccccc3)cc2cc1OC`, 124 to 125 °C; that for `NC(=O)c1nn(-c2c(Cl)cc(C(F)(F)F)cc2Cl)c(N)c1S(=O)(=O)C(F)(F)F`, 217 °C.
In the case of `Cc1ccc(Cc2cnc(NCCCN(Cc3cccc(Cl)c3)c3ccccn3)[nH]c2=O)cn1`, the melting point fell in the range of 100 to 104 °C.
As for `O=C(N[C@H]1CN2CCC1CC2)C(Cc1ccccc1)c1ccccc1` (some centres undefined), the figure is 142 °C; as for `Clc1ccc(-c2nc(Br)cnc2OCC2CC2)cc1`, 86 to 87 °C.
The result for `O=C(Cl)c1ccc(C(c2ccc(C(=O)Cl)cc2)(C(F)(F)F)C(F)(F)F)cc1` reads 96 to 97 °C; that for `COc1ccc2nc3c(cc2c1)c(N)nn3C`, 185 to 186 °C; that for `c1cc(Nc2nccc3ccccc23)cc(-n2ccnc2)c1`, 164 to 167 °C.
The result for `CCOC(C)OCC(C)C1CCC2C3C=CC4=CC(=O)C5OC5C4(C)C3CCC12C` (centres undefined) reads 91 to 93 °C; that for `COc1cc(I)c(C(=O)N(c2ccnc3cc4c(cc23)OCO4)C(C)CN(C)C)cc1OC` (centres undefined), 82 to 84 °C; that for `COc1ccc(-n2nc(Sc3ccc(Cl)cc3)c(C)c(C#N)c2=O)cc1`, 146 to 148 °C.
Consider `CCC(O)(CC(=O)OC(C)(C)C)c1cc[nH]c(=O)c1` (centres undefined), for which the melting point turned out to be 167 °C.
As for `COc1ccc(C(CCCCC(=O)O)C2=C(C)C(=O)c3ccccc3C2=O)cc1` (centres undefined), the melting point lay within 68 to 71 °C.
As for `CCCCCC(O)C=CC1C(O)CC(=O)C1CCCCCCC(=O)Oc1ccc(-c2cc(=S)ss2)cc1` (centres undefined), the figure is 101 to 105 °C.
The result for `Cc1nc(C(C)C)c(Sc2cccc(Cl)c2)[nH]1` reads 91 to 94 °C; that for `CC(C)(C)c1cc(C(=O)c2cccs2)cc(CN2CCCC2)c1O`, 95 to 97 °C; that for `Cc1cc(C2=NOC(c3cc(Cl)cc(Cl)c3)(C(F)(F)F)C2)ccc1Br` (centres undefined), 105 to 108 °C.
The result for `CC1=NC(C)(C)SC1=NOC(=O)N(C)C` reads 92 to 95 °C; that for `COc1cc(OC)c2c(=O)[nH]c(-c3cc(C)c(OCCN4Cc5ccccc5C4)c(C)c3)nc2c1`, 202 °C; that for `Nc1nc(Nc2ccc(N3CCOCC3)cc2)sc1C(=O)c1c(Cl)cncc1Cl`, 292 °C.
Turning to `O=[N+]([O-])c1ccc(S(=O)(=O)Nc2cccnc2Nc2ccccc2)cc1`, the melting point lay in the range of 191 to 192 °C.
The result for `NC(=O)c1cc2cc(OCC(O)CCl)ccc2o1` (centres undefined) reads 136 to 138 °C; that for `Cc1ccc(Cn2cccc2C(=O)CC(=O)C(=O)O)cc1`, 179 to 181 °C; that for `CCN(CC)S(=O)(=O)c1cc2c(ccc3nc(N)[nH]c(=O)c32)cc1Br`, > 250 °C.
As for `CCOCn1c(Oc2ccccc2)c(CC)c(=O)[nH]c1=O`, the figure is 130 to 131 °C; as for `NC(=O)COc1ccc(CCN2CCC(Nc3nc4ccccc4n3Cc3ccc(F)cc3)CC2)cc1`, 180 °C.
As for `CN1CCN(c2cccc3c2C[C@H](NC(=O)c2ccc(Cl)cc2)CC3)CC1`, the figure is 204 to 205 °C.
Compound `O=[N+]([O-])c1ccc2c(ccn2Cc2cccnc2)c1` displayed a melting point of 131 to 134 °C.
As for `Cn1ccnc1Sc1cc(Cl)ccc1N`, the figure is 116 to 120 °C; as for `CN1CC(CCN2CCN(c3ccc(Cl)c(Cl)c3)CC2)OC1=O` (centres undefined), 89 to 91 °C; as for `COC(=O)c1cc(C#N)c2cc(Cc3ccc(F)cc3)cnc2c1O`, 178 to 179 °C.
For `COc1cccc(N(CCN2CCC(C(=O)c3ccc(F)cc3)CC2)C(=O)c2ccc([N+](=O)[O-])cc2)c1`, the melting point lay in the range of 133 to 135 °C.
The result for `CC(C)N(CCCN1C(=O)C(=O)c2ccccc21)C(C)C` reads 49 to 50 °C; that for `Cc1cccc(-c2[nH]c(C(C)C)nc2-c2ccc(F)c(-c3ncc[nH]3)c2)n1`, 201 to 205 °C.
As for `COc1ccc(-c2[nH]nc3c2C(=O)c2c(NC(=O)Cc4ccc(NC(C)=O)cc4)cccc2-3)cc1`, the figure is 268 °C; as for `Cc1cc(=O)n(-c2cc(C(=O)O)c(Cl)cc2F)c(=O)n1C`, 236 to 239 °C; as for `CCN(CC)c1ccc(C2(N(c3ccc(NC(C)=O)cc3)c3ccc(NC(C)=O)cc3)OC(=O)c3ccccc32)c(C)c1` (centres undefined), 179 to 182 °C.
The result for `COc1ccccc1-c1c(N)c2ccc(Cl)cc2[nH]c1=O` reads 284 to 286 °C.
